# Results: PMC5600443 (Biochemistry and Biophysics Reports, 2016)
# Where “and” joins values, the source holds several entries; their conditions need not be identical. Equal values may be shown once.
# How the values were obtained:
# Format in all cases: cell-based
# [1] = tested on: RH-35 rat liver cancer cell line; assay: MTT assay, inhibition of proliferation of RH-35 rat liver cancer cells; details: read-out: Cell proliferation RH-35 IC50, rat RH-35 cells, 72 h, average of 3 independent experiments + SEM
# [2] = molecular target: rat α1/β1 (Rα1/β1) Na^+,K^+pump (Rattus norvegicus, UniProt P06685); details: for Efficiency coefficient A = 100*IC50 Na,K pump/IC50 proliferation, Rα1/β1 pump: Rα1/β1 pump IC50 versus RH-35 cell proliferation IC50
# [3] = molecular target: rat α2/β1 (Rα2/β1) Na^+,K^+pump (Rattus norvegicus, UniProt P06686); details: Rα2/β1 pump IC50 versus RH-35 cell proliferation IC50
Compound,IC50 [1],Effect on Rα1/β1 pump current ([2]; 0.05 µM drug),Inhibition of Rα1/β1 pump current ([2]; 0.50 µM drug),"Efficiency coefficient A = 100*IC50 Na,K pump/IC50 proliferation, Rα1/β1 pump [2]","Efficiency coefficient A = 100*IC50 Na,K pump/IC50 proliferation, Rα2/β1 pump [3]"
"CC12CCC(OC(=O)NCCCn3ccnc3)CC1CCC1C2CCC2(C)C(c3ccc(=O)oc3)CCC12O (centres unmarked) [BF238, Bufalin-3-yl [3-(1h-imidazol-1-yl)propyl]carbamate]",37.4 ± 3.1 µM,hardly affected,more than 50%,0.88,2.64
Bufalin-3-MeON-arabinopyranoside [BAP],~67.2 µM and 67.2 µM,–,–,0.10,0.16
"CNCCCNC(=O)O[C@H]1CC[C@@]2(C)[C@H](CC[C@@H]3[C@@H]2CC[C@]2(C)[C@@H](c4ccc(=O)oc4)CC[C@]32O)C1 [BF601, Bufalin-3-yl [3-(methylamino)propyl]carbamate]",~30.8 µM and 30.8 µM,–,–,0.35,0.92
